According to patent publication US11384079B2, “6-5 fused rings as C5a inhibitors” (CHEMOCENTRYX, INC., priority 2017, dated 2022):

Target: T1, C5aR (Homo sapiens, UniProt P21730)
T1 construct: U937 cells are a monocytic cell line which express C5aR; host or cells: U937 cells (cAMP treated) or isolated neutrophils
T1 sequence (P21730 1-350): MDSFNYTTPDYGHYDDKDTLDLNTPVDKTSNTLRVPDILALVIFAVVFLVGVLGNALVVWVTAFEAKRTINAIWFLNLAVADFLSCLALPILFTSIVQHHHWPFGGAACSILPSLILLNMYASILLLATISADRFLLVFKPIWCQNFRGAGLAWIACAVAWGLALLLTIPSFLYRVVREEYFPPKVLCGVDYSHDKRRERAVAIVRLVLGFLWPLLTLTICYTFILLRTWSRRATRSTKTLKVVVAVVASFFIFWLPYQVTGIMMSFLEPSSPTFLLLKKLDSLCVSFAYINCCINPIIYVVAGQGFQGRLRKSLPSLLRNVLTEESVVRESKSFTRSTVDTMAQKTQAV
Assay: chemotaxis assay (C5aR mediated migration)
Type: cell-based
Details: migration of U937 or neutrophil cells toward C5a (0.03 nM), 1.5 hours at 37° C., read-out: Mig IC50
Protocol: U937 cells are a monocytic cell line which express C5aR, and are available from ATCC (VA). […] Cells were grown under 5% CO2/95% air, 100% humidity at 37° C. and subcultured twice weekly at 1:6 (cells were cultured at a density range of 1×10^5 to 2×10^6 cells/mL) and harvested at 1×10^6 cells/mL. Prior to assay, cells are treated overnight with 0.5 mM of cyclic AMP (Sigma, Ohio) and washed once prior to use. cAMP treated U937 cells can be used in C5aR ligand binding and functional assays.
Optionally, human or murine neutrophils can be used to assay for compound activity. Neutrophils may be isolated from fresh human blood using density separation and centrifugation. Briefly, whole blood is incubated with equal parts 3% dextran and allowed to separate for 45 minutes. After separation, the top layer is layered on top of 15 mls of Ficoll (15 mls of Ficoll for every 30 mls of blood suspension) and centrifuged for 30 minutes at 400×g with no brake. The pellet at the bottom of the tube is then isolated and resuspended into PharmLyse RBC Lysis Buffer (BD Biosciences, San Jose, Calif.) after which the sample is again centrifuged for 10 minutes at 400×g with brake. The remaining cell pellet is resuspended as appropriate and consists of isolated neutrophils.
Optionally, compounds may be further assayed for their ability to inhibit chemotaxis in cells. Chemotaxis assays are performed using 5 μm pore polycarbonate, polyvinylpyrrolidone-coated filters in 96-well chemotaxis chambers (Neuroprobe; Gaithersburg, Md.) using chemotaxis buffer (Hank's balanced salt solution (HBSS) and 1% FBS). C5aR ligands (i.e., C5a, R&D Systems; Minneapolis, Minn.) are use to evaluate compound mediated inhibition of C5aR mediated migration. Other chemokines (i.e., SDF-1α; R&D Systems; Minneapolis, Minn.) are used as specificity controls. […] The chambers are incubated 1.5 hours at 37° C., and the number of cells in the lower chamber quantified either by direct cell counts in five high powered fields per well or by the CyQuant assay (Molecular Probes), a fluorescent dye method that measures nucleic acid content and microscopic observation.

| SMILES | IC50 [nM] |
| --- | --- |
| COc1cccc(F)c1-n1nc2c(c1-c1cc(F)c(OC)c3[nH]ccc13)CN(c1ncc(C(F)(F)F)cn1)CC2 [Example 1.007] | 50 to 500 |
| CCc1cccc(CC)c1-n1nc2c(c1-c1ccc3[nH]cnc3c1Cl)CN(c1ncc(C(F)(F)F)cn1)CC2 [Example 1.009] | 50 to 500 |
| CCc1cccc(CC)c1-n1nc2c(c1-c1ccc3[nH]ccc3n1)CN(c1ncc(C(F)(F)F)cn1)CC2 [Example 1.010] | > 500 |
| CCc1cccc(CC)c1-n1nc2c(c1-c1cnc3[nH]ccc3c1)CN(c1ncc(C(F)(F)F)cn1)CC2 [Example 1.011] | > 500 |
| CCc1cccc(CC)c1-n1nc2c(c1-c1cc3cc[nH]c3cn1)CN(c1ncc(C(F)(F)F)cn1)CC2 [Example 1.012] | 50 to 500 |
| CCc1cccc(CC)c1-n1nc2c(c1-c1ccc3[nH]c(C)nc3c1)CN(c1ncc(C(F)(F)F)cn1)CC2 [Example 1.016] | > 500 |
| CCc1cccc(CC)c1-n1nc2c(c1-c1ccc3[nH]cnc3c1)CN(c1ncc(C(F)(F)F)cn1)CC2 [Example 1.017] | > 500 |
| CCc1cccc(CC)c1-n1nc2c(c1-c1cc(F)c(OC)c3[nH]c(Cl)nc13)CN(c1ncc(C(F)(F)F)cn1)CC2 [Example 1.021] | 50 to 500 |
| CCc1cccc(CC)c1-n1nc2c(c1-c1cncc3[nH]ccc13)CN(c1ncc(C(F)(F)F)cn1)CC2 [Example 1.022] | 50 to 500 |
| CCc1cccc(CC)c1-n1nc2c(c1-c1cc(Cl)cc3[nH]cnc13)CN(c1ncc(C(F)(F)F)cn1)CC2 [Example 1.025] | 50 to 500 |
| CCc1cccc(CC)c1-n1nc2c(c1-c1cc(F)c(OC)c3[nH]c(CO)nc13)CN(c1ncc(C(F)(F)F)cn1)CC2 [Example 1.028] | > 500 |
| CCc1cccc(CC)c1-n1nc2c(c1-c1cc(F)c(OC)c3[nH]ccc13)C(=O)N(c1ncc(C(F)(F)F)cn1)CC2 [Example 1.033] | 50 to 500 |
| CCc1cccc(CC)c1-n1nc2c(c1-c1ccc(Cl)c3[nH]ccc13)C(=O)N(c1ncc(C(F)(F)F)cn1)CC2 [Example 1.034] | > 500 |
| CCc1cccc(CC)c1-n1nc2c(c1-c1ccc(Cl)c3[nH]c(C)nc13)CN(c1ncc(C(F)(F)F)cn1)CC2 [Example 1.038] | 5 to 50 |
| CCc1cccc(CC)c1-n1nc2c(c1-c1ccc3[nH]ccc3c1)CN(c1ncc(C(F)(F)F)cn1)CC2 [Example 1.039] | 5 to 50 |
| CCc1cccc(CC)c1-n1nc2c(c1-c1cccc3[nH]ccc13)CN(c1ncc(C(F)(F)F)cn1)CC2 [Example 1.040] | 5 to 50 |
| CCc1cccc(CC)c1-n1nc2c(c1-c1cccc3[nH]c(C(F)(F)F)nc13)CN(c1ncc(C(F)(F)F)cn1)CC2 [Example 1.042] | 50 to 500 |
| CCc1cccc(CC)c1-n1nc2c(c1-c1cccc3[nH]cnc13)CN(c1ncc(C(F)(F)F)cn1)CC2 [Example 1.043] | 5 to 50 |
| CCc1cccc(CC)c1-n1nc2c(c1-c1ccc(C(=O)N(C)C)c3[nH]ccc13)CN(c1ncc(C(F)(F)F)cn1)CC2 [Example 1.047] | 50 to 500 |
| Cc1cccc(C)c1-n1nc2c(c1-c1ccc(Cl)c3[nH]ncc13)CN(c1ncc(C(F)(F)F)cn1)CC2 [Example 1.049] | 5 to 50 |
| CCc1cccc(CC)c1-n1nc2c(c1-c1ccc(OC)c3[nH]ncc13)CN(c1ncc(C(F)(F)F)cc1F)CC2 [Example 1.052] | 5 to 50 |

Further lines, results first:

| IC50 [nM] | SMILES |
| --- | --- |
| 5 to 50 | Cc1cccc(C)c1-n1nc2c(c1-c1ncc(Cl)c3[nH]ccc13)CN(c1ncc(C3CC3)cn1)CC2 [Example 1.001] |
| 5 to 50 | COc1c(F)cc(-c2c3c(nn2-c2c(C)cccc2F)CCN(c2ncc(C(F)(F)F)cn2)C3)c2cc[nH]c12 [Example 1.002] |
| < 5 | COc1c(F)cc(-c2c3c(nn2-c2c(C)cccc2C)CCN(c2ncc(C4CC4)cn2)C3)c2cc[nH]c12 [Example 1.003] |
| 5 to 50 | COc1c(F)cc(-c2c3c(nn2-c2c(C)cccc2C)CCN(c2ncc(C(F)(F)F)cn2)C3)c2cc[nH]c12 [Example 1.004] |
| < 5 | CCc1cccc(CC)c1-n1nc2c(c1-c1nccc3[nH]cc(Cl)c13)CN(c1ncc(C(F)(F)F)cn1)CC2 [Example 1.005] |
| 5 to 50 | COc1cccc(C)c1-n1nc2c(c1-c1ccc3[nH]ccc3c1)CN(c1cc(C(C)(C)C)ccc1C)CC2 [Example 1.006] |
| < 5 | CCc1cccc(CC)c1-n1nc2c(c1-c1ncc(Cl)c3[nH]ccc13)CN(c1ncc(C(F)(F)F)cn1)CC2 [Example 1.008] |
| 5 to 50 | CCc1cccc(CC)c1-n1nc2c(c1-c1ncc(OC)c3[nH]ccc13)CN(c1ncc(C(F)(F)F)cn1)CC2 [Example 1.013] |
| 5 to 50 | CCc1cccc(CC)c1-n1nc2c(c1-c1c(F)cnc3[nH]ccc13)CN(c1ncc(C(F)(F)F)cn1)CC2 [Example 1.014] |
| 5 to 50 | CCc1cccc(CC)c1-n1nc2c(c1-c1nccc3[nH]ncc13)CN(c1ncc(C(F)(F)F)cn1)CC2 [Example 1.015] |
| 5 to 50 | Cc1cccc(OCC(C)C)c1-n1nc2c(c1-c1ccc3[nH]ccc3c1)CN(C(=O)OC(C)(C)C)CC2 [Example 1.018] |
| 5 to 50 | CCc1cccc(CC)c1-n1nc2c(c1-c1cc(F)c(OC)c3[nH]c(F)nc13)CN(c1ncc(C(F)(F)F)cn1)CC2 [Example 1.019] |
| < 5 | CCc1cccc(CC)c1-n1nc2c(c1-c1ncc(C)c3[nH]ccc13)CN(c1ncc(C(F)(F)F)cn1)CC2 [Example 1.020] |
| < 5 | CCc1cccc(CC)c1-n1nc2c(c1-c1cc(F)c(OC)c3[nH]cc(F)c13)CN(c1ncc(C(F)(F)F)cn1)CC2 [Example 1.023] |
| < 5 | CCOc1c(F)cc(-c2c3c(nn2-c2c(CC)cccc2CC)CCN(c2ncc(C(F)(F)F)cn2)C3)c2cc[nH]c12 [Example 1.024] |
| 5 to 50 | CCc1cccc(CC)c1-n1nc2c(c1-c1ncnc3[nH]ccc13)CN(c1ncc(C(F)(F)F)cn1)CC2 [Example 1.026] |

| IC50 [nM] | SMILES |
| --- | --- |
| 5 to 50 | CCc1cccc(CC)c1-n1nc2c(c1-c1cnc(C)c3[nH]ccc13)CN(c1ncc(C(F)(F)F)cn1)CC2 [Example 1.027] |
| 5 to 50 | CCc1cccc(CC)c1-n1nc2c(c1-c1ccnc3[nH]ccc13)CN(c1ncc(C(F)(F)F)cn1)CC2 [Example 1.029] |
| < 5 | CCc1cccc(CC)c1-n1nc2c(c1-c1cc(F)c(CO)c3[nH]cnc13)CN(c1ncc(C(F)(F)F)cn1)CC2 [Example 1.030] |
| 5 to 50 | CCc1cccc(CC)c1-n1nc2c(c1-c1nccc3[nH]ccc13)CN(c1ncc(C(F)(F)F)cn1)CC2 [Example 1.031] |
| < 5 | CCc1cccc(CC)c1-n1nc2c(c1-c1cc(F)c(OC)c3[nH]cc(Cl)c13)CN(c1ncc(C(F)(F)F)cn1)CC2 [Example 1.032] |
| < 5 | CCc1cccc(CC)c1-n1nc2c(c1-c1ccc(Cl)c3[nH]cnc13)CN(c1ncc(C(F)(F)F)cn1)CC2 [Example 1.035] |
| < 5 | CCc1cccc(CC)c1-n1nc2c(c1-c1cc(F)c(OC)c3[nH]cnc13)CN(c1ncc(C(F)(F)F)cn1)CC2 [Example 1.036] |
| 5 to 50 | CCc1cccc(CC)c1-n1nc2c(c1-c1ccc3[nH]c(C)nc3c1Cl)CN(c1ncc(C(F)(F)F)cn1)CC2 [Example 1.037] |
| < 5 | CCc1cccc(CC)c1-n1nc2c(c1-c1cc(F)c(Cl)c3[nH]ncc13)CN(c1ncc(C(F)(F)F)cn1)CC2 [Example 1.041] |
| < 5 | CCc1cccc(CC)c1-n1nc2c(c1-c1cc(Cl)c(OC)c3[nH]ccc13)CN(c1ncc(C(F)(F)F)cn1)CC2 [Example 1.044] |
| < 5 | CCc1cccc(CC)c1-n1nc2c(c1-c1c(F)cc(OC)c3[nH]ccc13)CN(c1ncc(C(F)(F)F)cc1F)CC2 [Example 1.045] |
| < 5 | CCc1cccc(CC)c1-n1nc2c(c1-c1c(F)cc(OC)c3[nH]ccc13)CN(c1ncc(C(F)(F)F)cn1)CC2 [Example 1.046] |
| < 5 | CCc1cccc(CC)c1-n1nc2c(c1-c1c(F)cc(Cl)c3[nH]ccc13)CN(c1ncc(OC(C)C)cn1)CC2 [Example 1.048] |
| < 5 | CCc1cccc(CC)c1-n1nc2c(c1-c1cc(F)c(OC)c3[nH]ccc13)CN(c1ncc(C3CC3)cn1)CC2 [Example 1.050] |
| < 5 | CCc1cccc(CC)c1-n1nc2c(c1-c1cc(F)c(OC)c3[nH]ncc13)CN(c1ncc(C(F)(F)F)cc1F)CC2 [Example 1.051] |
